{"source": "patent US4180577A", "about": "“Furo[2, 3d]pyrimidine derivatives and anti-ulcer containing the same” (Eisai Co., Ltd., priority 1974, dated 1979)", "key": {"[1]": {"tested_on": "Secretion of Gastric Juice", "assay": "Effect for Secretion of Gastric Juice (pylorus-ligated rats, Shay method)", "format": "in vivo, male rats of SD strain", "settings": "rat, 100 mg/Kg, into the duodenum; for Amount of gastric juice Vol. / Free Acid Output / Total Acid Output: 4 hours; for Amount of gastric juice Vol.: control 1.78 ± 0.26; for Free Acid Output: control 133.2 ± 32.7; for Total Acid Output: control 154.0 ± 36.0; for suppression of the amount of the gastric juice / suppression of the free acid output / suppression of the total acid output: vs control group", "protocol": "(§1) The compounds to be tested were suspended in 5% serous gum arabic solution, so as to adjust their concentration to 0.5 ml/100 g B.W. for oral administration, or 0.2 ml/100 g B.W. for duodenum administration. Indomethacin, [1-(p-chlorobenzoyl)-5-methoxy-2-methylindole-3-acetic acid] for control was suspended in 5% serous gum arabic solution, so as to adjust its concentration to 0.5 ml/100 g B.W.\nThe solutions of the compounds to be tested were adjusted to pH 5.0, and administered into the duodenum. The bellys were closed. After 4 hours, the animals were slaughtered by anesthesia, and the gastric juice was collected.\nThe volume of the gastric juice was measured and titrated by N/50 NaOH solution with Topfer indicator and phenolphthalein indicator, to determine the free acid output the total acid output, respectively.\nThe compounds to be tested were administered into the duodenum immediately after ligaturing the pylorus.\nThe medicine solution was adjusted to pH 5.0 with N--NaOH solution."}, "[2]": {"tested_on": "Cold-restraint Stress Induced Ulcer", "assay": "Inhibitory Effects on Cold-restraint Stress Induced Ulcer", "format": "in vivo, female rats of SD strain", "settings": "rat, oral; for Percentage of inhibition (ulcer index) / Ulcer index: 30 minutes prior to stress; for Percentage of inhibition (ulcer index): vs control, hydrobromide; for Ulcer index: control 14.8 ± 1.7", "protocol": "as §1\nThis experiment was effected by referring to the method by S. Dai et al. [Eur. J. Pharmaco. 26, 15-21 (1974)] and the method by M. M. Goldenberg et al. [Am. J. Dic. Dis 19, 4, 353-360 (1974)].\nFemale rats of SD strain (weighing about 180 g) were restrained in a cage made of wire gauze, and the cage was allowed to stand in a room at the low temperature at 4° C. for two hours. After subsequent two hours, the animals were slaughtered. The stomaches were extirpated. Thereafter, the subsequent procedure was carried out in accordance with the pharmacological experiment 3.\nThe compounds to be tested were orally administered 30 minutes prior to exposure of the stress."}, "[3]": {"tested_on": "Indomethacin-induced Ulcer", "assay": "Effects on Indomethacin-induced Ulcer", "format": "in vivo, Wister strain male rats", "settings": "rat, oral, 30 minutes prior to Indomethacin 40 mg/Kg; for Percentage of inhibition (ulcer index): vs control; for Ulcer index: control 9.30 ± 3.09; for Percentage of Incidence of Ulcer: control 75", "protocol": "as §1\nWister strain male rats (weighing about 230 g) were subjected to the fast for 24 hours. 40 mg/Kg of the Indomethacin were orally administered, respectively. After 4 hours from the administration, the animals were slaughtered and their stomaches were extirpated. The subsequent procedures were carried out in accordance with the pharmacological experiment 3.\nThe compounds to be tested were orally administered 30 minutes prior to the administration of Indomethacin."}, "[4]": {"tested_on": "Ligature Ulcer of the Pylorus", "assay": "Effect on Ligature Ulcer of the Pylorus", "format": "in vivo, male rats of SD strain", "settings": "rat, 300 mg/Kg, into the duodenum, 17 hours", "protocol": "as §1\nAccording to the method by H. Shay et al. [Gastroenterology 5, 43 (1945)], male rats (weighing about 320 g) of SD strain were fasted for 24 hours, and then incised the belly under the ether rausch anesthesia, and finally ligatured the pyloruses. The solution of compounds to be tested were adjusted to pH 5.0, and administered into the duodenum. The bellys were closed. After subsequent 17 hours, the animals were slaughtered by the anesthesia, and their stomaches were extirpated. More particularly, the stomaches were incised along the greater curvature. The ulcer generated at forestomach was ranged as shown in the following. The total of the ranking was named as the ulcer index.\nGreater than 1 mm, but not greater\nGreater than 3 mm, but not greater\nGreater than 5 mm, but not greater"}, "[5]": {"tested_on": "Immersive Stress-induced Ulcer", "assay": "Inhibitory Effects on the Immersive Stress-induced Ulcer", "format": "in vivo, female rats of SD strain", "settings": "rat, oral; for Percentage of inhibition (ulcer index): vs control; for Ulcer index: control 80.4 ± 3.5", "protocol": "as §1\nAccording to the method by K. Takagi et al. [Jap. J. Pharmacol. 18, 9 )1968)], female rats (weighing about 160 g) of SD strain were put in a cage made of wire gauze for restraint, dipped in a water bath at the temperature of 23° C. so as to cover the lower end of their breast bones, and allowed to stand for 20 hours. The animals were then slaughtered by the anesthesia, and their stomaches were extirpated. The stomaches were inflated with 10 ml of physiological saline water, and dipped in 0.5% neutral formalin solution for about 5 minutes according to the method by D. A. Brodie et al [Gastroenterology 38, 354-360 (1960)]. The stomaches were then incised along the greater curvature. The length of each ulcer (erosion) generated at adeno-stomach was measured. The total of said lengthes were assigned as the ulcer index.\nThe compounds to be tested were orally administered prior to the immersion."}}, "note": "Several values for one entry are separate records, joined by “and”; a condition that tells them apart may be missing. Equal values may be shown once. Where a name gives a salt, the structure may show the parent alone.", "data": [{"smiles": "CSc1nc(N)c2c(C)coc2n1", "note": "[B, 2-Methylmercapto-4-amino-5-methyl-furo[2, 3d]pyrimidine hydrobromide]", "values": [{"measurement": "Amount of gastric juice Vol.", "setting": "[1]", "result": "0.51 ± 0.09 (ml)/100g B.W."}, {"measurement": "Free Acid Output", "setting": "[1]", "result": "16.5 ± 5.5", "unit": "μEq/100g B.W."}, {"measurement": "Total Acid Output", "setting": "[1]", "result": "37.8 ± 5.6", "unit": "μEq/100g B.W."}, {"measurement": "suppression of the amount of the gastric juice", "setting": "[1]", "result": "over 54%"}, {"measurement": "suppression of the free acid output", "setting": "[1]", "result": "over 69%"}, {"measurement": "suppression of the total acid output", "setting": "[1]", "result": "over 57%"}]}, {"smiles": "C=CCSc1nc(N)c2c(C)coc2n1", "note": "[C, 2-Allylmercapto-4-amino-5-methyl-furo[2, 3d]pyrimidine]", "values": [{"measurement": "Amount of gastric juice Vol.", "setting": "[1]", "result": "0.49 ± 0.11 (ml)/100g B.W."}, {"measurement": "Free Acid Output", "setting": "[1]", "result": "18.2 ± 7.1", "unit": "μEq/100g B.W."}, {"measurement": "Total Acid Output", "setting": "[1]", "result": "33.1 ± 7.6", "unit": "μEq/100g B.W."}, {"measurement": "suppression of the amount of the gastric juice", "setting": "[1]", "result": "over 54%"}, {"measurement": "suppression of the free acid output", "setting": "[1]", "result": "over 69%"}, {"measurement": "suppression of the total acid output", "setting": "[1]", "result": "over 57%"}]}, {"smiles": "CCSc1nc(N)c2c(C)coc2n1", "note": "[Compound A, 2-Ethylmercapto-4-amino-5-methyl-furo[2, 3d]pyrimidine hydrobromide]", "values": [{"measurement": "Amount of gastric juice Vol.", "setting": "[1]", "result": "0.81 ± 0.15 (ml)/100g B.W."}, {"measurement": "Free Acid Output", "setting": "[1]", "result": "41.0 ± 16.6", "unit": "μEq/100g B.W."}, {"measurement": "Total Acid Output", "setting": "[1]", "result": "65.8 ± 20.4", "unit": "μEq/100g B.W."}, {"measurement": "suppression of the amount of the gastric juice", "setting": "[1]", "result": "over 54%"}, {"measurement": "suppression of the free acid output", "setting": "[1]", "result": "over 69%"}, {"measurement": "suppression of the total acid output", "setting": "[1]", "result": "over 57%"}, {"measurement": "Percentage of inhibition (ulcer index)", "setting": "[2]; 50 mg/Kg, 50 mg/kg", "result": "78.4% and 78%"}, {"measurement": "Ulcer index", "setting": "[2]; 50 mg/Kg", "result": "3.2 ± 1.0", "unit": "mm"}, {"measurement": "Percentage of inhibition (ulcer index)", "setting": "[2]; 100 mg/Kg, 100 mg/kg", "result": "85.8% and 86%"}, {"measurement": "Ulcer index", "setting": "[2]; 100 mg/Kg", "result": "2.1 ± 0.6", "unit": "mm"}, {"measurement": "dose dependence of ulcer inhibition", "setting": "[2]; 50 and 100 mg/Kg", "result": "dose dependent"}, {"measurement": "Percentage of inhibition (ulcer index)", "setting": "[3]; 25 mg/Kg", "result": 82, "unit": "%"}, {"measurement": "Ulcer index", "setting": "[3]; 25 mg/Kg", "result": "1.67 ± 1.00", "unit": "mm"}, {"measurement": "Percentage of Incidence of Ulcer", "setting": "[3]; 25 mg/Kg", "result": 38, "unit": "%"}, {"measurement": "Percentage of inhibition (ulcer index)", "setting": "[3]; 50 mg/Kg", "result": 100, "unit": "%"}, {"measurement": "Ulcer index", "setting": "[3]; 50 mg/Kg", "result": "0 ± 0", "unit": "mm"}, {"measurement": "Percentage of Incidence of Ulcer", "setting": "[3]; 50 mg/Kg", "result": 0, "unit": "%"}, {"measurement": "Percentage of inhibition (ulcer index)", "setting": "[3]; 100 mg/Kg", "result": 98, "unit": "%"}, {"measurement": "Ulcer index", "setting": "[3]; 100 mg/Kg", "result": "0.20 ± 0.19", "unit": "mm"}, {"measurement": "Percentage of Incidence of Ulcer", "setting": "[3]; 100 mg/Kg", "result": 13, "unit": "%"}, {"measurement": "Percentage of inhibition (ulcer index)", "setting": "[4]; vs control", "result": 100, "unit": "%"}, {"measurement": "Ulcer index", "setting": "[4]; control 54 ± 14", "result": "0 ± 0", "unit": "mm"}, {"measurement": "Percentage of inhibition (ulcer index)", "setting": "[5]; 150 mg/Kg", "result": 21.0, "unit": "%"}, {"measurement": "Ulcer index", "setting": "[5]; 150 mg/Kg", "result": "63.5 ± 6.5", "unit": "mm"}, {"measurement": "Percentage of inhibition (ulcer index)", "setting": "[5]; 300 mg/Kg", "result": 38.7, "unit": "%"}, {"measurement": "Ulcer index", "setting": "[5]; 300 mg/Kg", "result": "49.3 ± 3.4", "unit": "mm"}, {"measurement": "dose dependence of ulcer inhibition", "setting": "[5]; 150 and 300 mg/Kg", "result": "dose dependent"}]}]}
